Measurements published in patent US7759317B2, “Analgesic and anti-inflammatory compositions and methods with flavonoid glycoside-type compounds” (BMB Patent Holding Corporation, priority 2006, dated 2010).
Several values for one entry are separate records, joined by “and”; a condition that tells them apart may be missing. Equal values may be shown once.

Assays:
mouse air pouch = test: Inflammation Bioassay Protocol: mouse air pouch assay, carrageenan-induced, white blood cell count in exudate; type: in vivo, mice
Experimental: A mouse air pouch assay was used to determine the therapeutic effectiveness of various extracts/compounds as anti-inflammatories in the present invention.
To induce air pouches, 10-15 week old mice were injected subcutaneously on the back with 3 ml of air.
On day 2, the pouches were reinflated with 1.5 m. of air.
On day 6, inflammation was induced by injecting 1 ml of a suspension of carrageenan (2% weight/volume in calcium-free and magnesium-free phosphate buffered saline (PBS) solution) into the air pouch.
100 μL of solution including test compounds were injected with the carrageenan (additional 100 μL of PBS were injected into the controls).
After 4 hours, the mice were sacrificed by including C02 narcosis, the pouches were flushed with 2 ml of PBS, and exudates were harvested.
Exudates were diluted 1:1 with 0.015% methylene blue in PBS.
White blood cells were counted in a standard hemocytometer chamber (American Optical, Buffalo, N.Y.).

[1] = system: capsaicin-treated hindpaw; test: Analgesic Bioassay Protocol: rat hindpaw withdrawal latency to radiant heat after capsaicin sensitisation; type: in vivo, Sprague-Dawley rats; conditions: n=5
Experimental: A rat hindpaw assay was used to determine the therapeutic effectiveness of various extracts/compounds as analgesics in the present invention. Sprague-Dawley rats (225-250 g, male) were anesthetized with urethane and placed on their sides on a disposable Chux pad. Both hindpaws for each rat were blackened with India ink which was allowed to dry for 10 minutes. An ELH projector lamp calibrated to a standard mW/cm was used as a pain stimulus and was condensed into an area of 5×15 mm on each hindpaw and placed perpendicular to, and 72 mm from, each hindpaw. Multiple baseline hindpaw withdrawal latency times were recorded (in seconds) for each medial and each lateral surface of each hindpaw. Subsequently, 100 μl of 1 μmolar capsaicin was applied with a pipette to cover one hindpaw of each animal and allowed to dry for 10 minutes, rendering the capsaicin-treated hindpaw hypersensitive to pain stimulus relative to the non-capsaicin treated hindpaw (and thereby decreasing the withdrawal latency period for the capsaicin-treated hindpaw relative to the non-treated hindpaw). Both hindpaws were then re-blackened with India ink which was allowed to dry for 10 minutes, and hindpaw withdrawal latencies were recorded for both the capsaicin-treated and untreated hindpaws on both the medial and lateral aspects of both hindpaws at 20, 25 and 30 minutes. […] By contrast, only minor drops in the withdrawal latency periods of the untreated hindpaws was seen, and the effect that was observed is believed to be due to the central mechanism effect of capsaicin-treatment on the other hindpaw. To determine the analgesic properties of each fraction, 100 μl of each fraction were applied to the capsaicin-treated hindpaw by pipette and permitted to dry (the untreated hindpaw was not treated with the fraction). Hindpaw withdrawal latencies were then recorded at 5, 20 and 30 minutes for both the capsaicin/fraction-treated hindpaw and the untreated hindpaw. An increase in the hindpaw withdrawal time was indicative of an analgesic effect by the applied fraction.

[2] = white blood cells in air pouch exudate, individual mice, 4 hours after carrageenan

## O=c1cc(-c2ccc(O)c(O)c2)oc2cc(OC3OC(COC4OCC(O)(CO)C4O)C(O)C(O)C3O)cc(O)c12 [Compound 580, luteolin 7-(6″-β-D-apiofuranosyl)-β-D-glucopyranoside]
Mouse air pouch; mean of five treated mice, control mice 2.67
  Average Cells (10^6/ml): 1.00 10^6/ml
Mouse air pouch; result in words
  anti-inflammatory effects, comparison with reference drugs: comparable to 0.5-1.0 mg/kg/week of chronic methotrexate, or 1.5 mg/kg acute dose of dexamethasone
Mouse air pouch; [2]
  Cells (10^6/ml): 0.75 10^6/ml and 1.17 10^6/ml and 0.72 10^6/ml and 1.16 10^6/ml and 1.22 10^6/ml
  Cells/ml: 7.50E+05 Cells/ml and 1.17E+06 Cells/ml and 7.20E+05 Cells/ml and 1.16E+06 Cells/ml and 1.22E+06 Cells/ml
Mouse air pouch; white blood cells, average of 4 hemocytometer chambers, individual mice, 100 μL test solution with carrageenan, exudate after 4 hours
  Average Count: 37.50 and 58.50 and 24.00 and 38.75 and 40.50
[1]; average of all post-capsaicin latencies, before test substance
  Avg All Cap: 6.3 s
[1]; latency 5 minutes after application to capsaicin-treated hindpaw, amount (mg)
  Avg Ext 5: 13.7 s
[1]; latency 20 minutes after application to capsaicin-treated hindpaw, amount (mg)
  Avg Ext 20: 9.6 s
[1]; latency 20 minutes after capsaicin, before test substance
  Avg Cap 20: 5.8 s
[1]; latency 25 minutes after capsaicin, before test substance
  Avg Cap 25: 7.2 s
[1]; latency 30 minutes after application to capsaicin-treated hindpaw, amount (mg)
  Avg Ext 30: 9.4 s
[1]; latency 30 minutes after capsaicin, before test substance
  Avg Cap 30: 6 s
[1]; withdrawal latency before capsaicin and before test substance
  Avg Baseline: 9.3 s
